Results: article PMC7600403, “Development of an Oil-in-Water Self-Emulsifying Microemulsion for Cutaneous Delivery of Rose Bengal: Investigation of Anti-Melanoma Properties” (Pharmaceutics, 2020)

Legend:
WM164 [1] = test: MTT cell viability assay of SEMEs and excipients (60 min); assay type: cell-based, human; details: WM164, 60 min incubation; mean (95% CI), n = 5; >Max Conc. = not reaching the sensitive range for the applied concentrations
Protocol: (§1) Human melanoma cell lines (WM164, WM1366, and D24), spontaneously immortalized normal human keratinocytes (HaCaT), and primary skin fibroblast cells were kindly provided by A/Prof. Helmut Schaider’s laboratory (University of Queensland Diamantina Institute). The cells were grown in RPMI medium (+ L-glutamine) supplemented with 5% (v/v) FBS and 2% penicillin/streptomycin—except for the fibroblast cells which were cultured in DMEM. Cells were routinely grown in culture flasks and maintained at 37 °C in a humidified 5% CO2 atmosphere. The culture media was replaced with fresh media every two to three days. Cells were detached using trypsin–EDTA when they reached approximately 80% confluence to seed or subculture. A low passage number (6–12) of primary fibroblast was used during the experiments, and regular microbial contamination testing was done.
(§2) To exclude any toxic effect of the blank SEMEs and their constituents on human skin cells, an MTT cell viability test was performed based on the original protocol. In this assay, the yellow tetrazolium salt MTT is reduced to insoluble purple formazan crystals by metabolically live cells.
(§3) After 60 min incubation of treated cells, the excipient-containing medium was removed, and 100 μL of MTT in PBS (5 mg/mL) diluted 1:10 in medium was then added. Plates were further incubated in the dark for 2–3 h, after which time the wells were emptied and the purple formazan was dissolved by addition of 200 μL of DMSO to each well. Plates were located in a shaker for 5 min at room temperature and the absorbance of the solutions in the wells was measured at 570 nm using a microplate reader (Multiskan™ FC Microplate Photometer). The impact of each treatment was determined as the percentage of reduced tetrazolium salt against the control cells (untreated cells with medium only).
(§4) The cytotoxicity at each excipient concentration was expressed as a percentage of viability against the untreated control wells (the mean optical density of untreated cells was set at 100% viability) to construct a dose-dependent cytotoxicity plot.
(§5) The percentage viability was calculated as follows (Equation (1)):(1) % Viability= Mean absorbance of treated wells/Mean absorbance of control wellno excipients ×100.
(§6) The cytotoxicity of the excipients and formulations (treatments) was expressed as an IC50 value (concentration causing 50% death of the cell population). The IC50 value for each treatment concentration was calculated from the dose–response curves plotted in GraphPad Prism 7 (GraphPad Software Inc. California, USA) with log (treatment concentration) on the x-axis and percentage survival on the y-axis. The IC50 value was obtained by fitting the dose–response curve with a nonlinear regression curve (Dose-response-inhibition) on GraphPad Prism 7. […] All IC50 values were expressed as v/v (%).

HaCaT [2] = test: as above; assay type: cell-based, human; details: 60 min incubation, mean (95% CI), n = 5, >Max Conc. = not reaching the sensitive range
Protocol: as §1, §2, §3, §4, §5, §6

WM1366 [3] = test: as above; assay type: cell-based, human; details: WM1366, 60 min incubation; mean (95% CI), n = 5; >Max Conc. = not reaching the sensitive range
Protocol: as §1, §2, §3, §4, §5, §6

[4] = test system: primary skin fibroblast cells; test: as above; assay type: cell-based, human; details: 60 min incubation, mean (95% CI), n = 5, >Max Conc. = not reaching the sensitive range
Protocol: as §1, §2, §3, §4, §5, §6

D24 [5] = test: as above; assay type: cell-based, human; details: D24, 60 min incubation; mean (95% CI), n = 5; >Max Conc. = not reaching the sensitive range
Protocol: as §1, §2, §3, §4, §5, §6

[6] = test system: WM164, WM1366, D24, HaCaT and fibroblast cells; test: MTT cell viability assay of excipients, all tested cell lines together; assay type: cell-based, human; details: 60 min MTT; maximum concentration used 10 (v/v %)
Protocol: To exclude any toxic effect of the blank SEMEs and their constituents on human skin cells, an MTT cell viability test was performed based on the original protocol. In this assay, the yellow tetrazolium salt MTT is reduced to insoluble purple formazan crystals by metabolically live cells. After 60 min incubation of treated cells, the excipient-containing medium was removed, and 100 μL of MTT in PBS (5 mg/mL) diluted 1:10 in medium was then added. Plates were further incubated in the dark for 2–3 h, after which time the wells were emptied and the purple formazan was dissolved by addition of 200 μL of DMSO to each well. Plates were located in a shaker for 5 min at room temperature and the absorbance of the solutions in the wells was measured at 570 nm using a microplate reader (Multiskan™ FC Microplate Photometer). The impact of each treatment was determined as the percentage of reduced tetrazolium salt against the control cells (untreated cells with medium only). […] The IC50 value for each treatment concentration was calculated from the dose–response curves plotted in GraphPad Prism 7 (GraphPad Software Inc. California, USA) with log (treatment concentration) on the x-axis and percentage survival on the y-axis. […] All IC50 values were expressed as v/v (%).

[7] = parameters: method as in PubChem; details: ref PubChem; cited from earlier work
WM164 [8] = test: MTT assay, inhibitory effect of RB in different delivery systems; assay type: cell-based, human
Protocol: as §1
(§7) For the 72-h MTT assay, cells were seeded into flat bottom 96-well cell culture plates in 100 μL of complete culture medium at the initial density of […]. Cells were incubated under 5% CO2 at 37 °C for 24 h for adhering to the wells and medium was then replaced with 100 μL of fresh medium containing treatment solution at the required final concentration. Each concentration was tested in 3 replicates in 3 independent studies and control cells were exposed to the culture medium only.
(§8) The MTT cell viability assay was also used as a proxy measure for cell proliferation. Cells were plated in 96-well culture plates, at a density of 8000 cells per well in 100 μL of medium and incubated for 24 h. Treatment solutions of active drug in milli-Q® water or incorporating in SEME were prepared in cell culture medium immediately before use and added in a volume of 100 μL at desired final concentrations. After a specific period, cell viability was evaluated by MTT assay. All experiments were performed in triplicate.
as §6

HaCaT [9] = test: as above; assay type: cell-based, human
Protocol: as §1, §7, §8, §6

WM1366 [10] = test: as above; assay type: cell-based, human
Protocol: as §1, §7, §8, §6

[11] = test system: primary skin fibroblast cells; test: as above; assay type: cell-based, human
Protocol: as §1, §7, §8, §6

D24 [12] = test: as above; assay type: cell-based, human
Protocol: as §1, §7, §8, §6

WM164 [13] = test: Cell cycle analysis by flow cytometry (PI staining, sub G0G1); assay type: cell-based, human; details: WM164, 50 µM RB, 24-h treatment; untreated 3.94
Protocol: (§9) Apoptotic cells were detected using Propidium Iodide (PI) staining of treated cells followed by flow cytometry to detect the sub-G1 peak. It has been reported that small segments of DNA caused by DNA fragmentation can be eluted following incubation in a hypotonic phosphate-citrate buffer. When stained with a quantitative DNA binding dye such as PI, cells that have lost DNA will take up less stain and will appear to the left of the G1 peak.
(§10) Briefly, melanoma cells were cultured overnight in a 6-well plate to subconfluence and treated with RB (50 µM) for 24 h. Floating and adherent cells were harvested by a trypsin-based method and fixed by ice cold 70% ethanol. Cells were incubated at 4 °C for at least 24 h in the dark and stained using 70 μM Propidium Iodide in 500 µl of a 38-mM hypotonic tri-sodium citrate buffer supplemented with 5 μg/mL RNase A before flow cytometric analysis using a FACScan. […]
(§11) 6. Cell Cycle Analysis by Flow Cytometry
(§12) After determining that RB decreased cell viability of human skin melanoma cells in a dose-dependent manner, the mechanism of cell death was investigated by flow cytometry. As RB-induced cell death was evident upon exposure to concentrations >50 μM, the cells were treated with 50-μM RB in water, SEME+PG and SEME-PG for 24 h for cell cycle analysis. […]
(§13) increases in apoptotic cell populations when cells were treated with RB-loaded SEMEs compared to […]
(§14) selective cell death mechanism could be a key for an effective antimelanoma drug.
(§15) Figure S7. Cell cycle histograms after RB treatment. RB induces apoptosis in melanoma cells. Flow cytometry histograms of apoptosis assays by the PI method. Cells were treated with 50 μM of RB incorporated in different delivery systems for 24 h. The SubG0G1 region (shown by asterisks) indicates the presence of apoptotic cells induced in melanoma cells treated with RB incorporated in SEMEs.
(§16) The percentages of apoptotic cell populations in cancerous and non-cancerous cells are shown in […]
(§17) Table 4 of the manuscript. […]
(§18) with RB loaded in a SEME containing PG.

HaCaT [14] = test: as above; assay type: cell-based, human; details: 50 µM RB, 24-h treatment, untreated 1.07
Protocol: as §9, §10, §11, §12, §13, §14, §15, §16, §17, §18

WM1366 [15] = test: as above; assay type: cell-based, human; details: WM1366, 50 µM RB, 24-h treatment; untreated 0.89
Protocol: as §9, §10, §11, §12, §13, §14, §15, §16, §17, §18

Fibroblast = test: as above; assay type: cell-based, human; details: 50 µM RB, 24-h treatment, untreated 0.00
Protocol: as §9, §10, §11, §12, §13, §14, §15, §16, §17, §18

D24 [16] = test: as above; assay type: cell-based, human; details: D24, 50 µM RB, 24-h treatment; untreated 2.54
Protocol: as §9, §10, §11, §12, §13, §14, §15, §16, §17, §18

SMILES: CCOCCOCCO [Transcutol®, diethylene glycol monoethyl ether]
- IC50 (WM164 [1]): ~5.6 (very wide) v/v %
- IC50 (HaCaT [2]): 5.75 (very wide) v/v %
- IC50 (WM1366 [3]): >Max Conc.
- IC50 [4]: >Max Conc.
- IC50 (D24 [5]): 4.55 (3.1-8.2) v/v %
- IC50, range over all the cell lines [6]: ≥ 4.55 v/v (%)

SMILES: O=C([O-])c1c(Cl)c(Cl)c(Cl)c(Cl)c1-c1c2cc(I)c(=O)c(I)c-2oc2c(I)c([O-])c(I)cc12.[Na+].[Na+] [RB, 4,5,6,7-tetrachloro-2, 4′, 5′, 7--tetraiodofluorescein disodium salt]
- log P [7]: 7.6
- IC50 (WM164 [8]; RB and encapsulated RB, WM164, 48 h incubation, concentration of RB, mean (95% CI), n = minimum of 4, vehicle concentration constant): 103 µM
- IC50 (WM164 [8]; RB aqueous solution, WM164, 24 h): 112 µM
- IC50 (WM164 [8]; RB aqueous solution, WM164, 48 h (Table 2)): 107 µM
- IC50 (WM164 [8]; RB aqueous solution, WM164, 72 h): 109 µM
- IC50 (HaCaT [9]; RB and encapsulated RB, 48 h incubation, concentration of RB, mean (95% CI), n = minimum of 4, read-out: IC50): 153 µM
- IC50 (HaCaT [9]; RB aqueous solution, 24 h, read-out: IC50): 2250 µM
- IC50 (HaCaT [9]; RB aqueous solution, 48 h (Table 2), read-out: IC50): 221 µM
- IC50 (HaCaT [9]; RB aqueous solution, 72 h): >Max Conc.
- IC50 (WM1366 [10]; RB and encapsulated RB, WM1366, 48 h incubation, concentration of RB, mean (95% CI), n = minimum of 4, read-out: IC50): 98.9 µM
- IC50 (WM1366 [10]; RB aqueous solution, WM1366, 24 h): >Max Conc.
- IC50 (WM1366 [10]; RB aqueous solution, WM1366, 48 h (Table 2), read-out: IC50): 110 µM
- IC50 (WM1366 [10]; RB aqueous solution, WM1366, 72 h, read-out: IC50): ~114 µM
- IC50 ([11]; RB and encapsulated RB, 48 h incubation, concentration of RB, mean (95% CI), n = minimum of 4): 188 µM
- IC50 ([11]; RB aqueous solution, 24 h): 238 µM
- IC50 ([11]; RB aqueous solution, 48 h (Table 2)): 459 µM
- IC50 ([11]; RB aqueous solution, 72 h): 108 µM
- IC50 (D24 [12]; RB and encapsulated RB, D24, 48 h incubation, concentration of RB, mean (95% CI), n = minimum of 4): 45.6 µM
- IC50 (D24 [12]; RB aqueous solution, D24, 24 h): 131 µM
- IC50 (D24 [12]; RB aqueous solution, D24, 48 h (Table 2)): 70 µM
- IC50 (D24 [12]; RB aqueous solution, D24, 72 h): 27.3 µM
- Apoptotic Cells % (Sub G0G1) (WM164 [13]): 6.69%
- Apoptotic Cells % (Sub G0G1) (HaCaT [14]): 1.15%
- Apoptotic Cells % (Sub G0G1) (WM1366 [15]): 2.29%
- Apoptotic Cells % (Sub G0G1) (Fibroblast): 0.99%
- Apoptotic Cells % (Sub G0G1) (D24 [16]): 2.66%

SMILES: CC(O)CO (centres unmarked) [PG, propylene glycol]
- IC50 (WM164 [1]): >Max Conc.
- IC50 (HaCaT [2]): >Max Conc.
- IC50 (WM1366 [3]): >Max Conc.
